{"source": "patent US5283255A", "about": "“Wavelength-specific cytotoxic agents” (The University of British Columbia, priority 1992, dated 1994)", "key": {"target cells": {"system": "target cells", "assay": "In vitro evaluation of BPD-DA, -MA, -DB and -MB (as in Example 1)", "assay_type": "cell-based", "procedure": "For the \"affinity\" assay, in the dark, 100 μl of the target cell suspension and 100 μl of the test or control compound were mixed. \"Labeling\" was allowed to continue for one hour at 4° C., and labeled cells were washed in the dark three times with 3 ml medium each time and resuspended in fresh medium. The resuspended cells were then subjected to light exposure at 300-750 nanometers for 30 minutes.\nIn a \"direct\" assay the target cells were irradiated immediately upon addition of the test or control compound.\nThe effect of irradiation was estimated using methods appropriate to the target cells.\nThe four compounds shown in FIG. 2, wherein R^1 and R^2 are carbomethoxy, were tested in vitro as described in Example 1."}, "M-1 rhabdomycoscercoma": {"system": "M-1 rhabdomycoscercoma", "assay": "In vivo photosensitization, M-1 rhabdomyosarcoma system in DBA/J2 mice", "procedure": "Studies of potential photosensitizers were performed using the M-1 rhabdomycoscercoma system in DBA/J2 mice. The compositions to be tested were diluted to a concentration of […] in PBS from a stock solution in DMSO at 8 mg/ml (except Photofrin® II, which was diluted directly from the clinical vial). […]"}, "VSV": {"system": "VSV", "assay": "microbe, parasite or virus in culture", "set-up": "species or system Vesicular stomatitis virus", "conditions": "for log reduction at 1 µg/mL: read-out: virus kill, 1 μg/ml; for log reduction at 1000 µg/mL: read-out: virus kill, 1 mg/ml (so in the source)"}, "[1]": {"system": "Human atherosclerotic iliofemoral arteries and aorta", "assay": "In vitro human atherosclerotic tissue study, fluorescence microscopy", "procedure": "Human atherosclerotic iliofemoral arteries and aorta were harvested and wrapped in saline-soaked gauze and then incubated for 2 hours at room temperature in MEM-Eagle's Medium and 10% fetal calf serum mixed with BPD-MA formulated at 30 μg/ml. The BPD was prepared by mixing 1 ml of BPD-MA stock solution with 8.1 ml MEM-Eagle's Medium and 0.9 ml fetal calf serum.\nThe sample was rinsed three times in cold normal saline, and the sections were examined by fluorescence microscopy to evaluate the uptake of BPD. The administered dose was finally diluted to provide solutions containing 0.5-200 μg/ml, and incubation time was varied."}, "atherosclerotic aortas": {"system": "atherosclerotic aortas", "assay": "Rabbit studies of aorta, fluorescence microscopy", "assay_type": "in vivo", "procedure": "The rabbits were injected with BPD-MA at various dosages and time intervals prior to sacrifice. The rabbits were euthanized by injection and the entire descending aorta was removed, sectioned, and examined by fluorescence microscopy."}, "[2]": {"system": "warts caused by Papilloma virus", "assay": "Systemic administration, papilloma-caused warts in rabbits", "assay_type": "in vivo, rabbit", "conditions": "of 12 warts, 2 mg/kg IV", "procedure": "Rabbits displaying warts caused by Papilloma virus were provided according to the model described by Shope et al., J. Exp. Med, (1933) 58:607-624. Five rabbits were administered Photofrin® II porfimer sodium intravenously at 10 mg/kg total dose over a ≤5 minute period beginning 24 hours before irradiation treatment. Six rabbits were administered BPD-MA intravenously at 2 mg/kg total dose over a ≤5 minute period beginning 2.5-3.5 hours before irradiation treatment. Warts were irradiated individually with no light, 150 J/cm^2 or 250 J/cm^2 using 630 nm for porfimer sodium and 690 nm for BPD-MA."}, "P815 target cells": {"system": "P815 target cells", "conditions": "mouse, in vivo, iv", "protocol": "(§4) To determine biodegradability, tritiated BPD-MA was injected IV into P815 tumor-bearing mice. The mice were sacrificed at either 3 or 24 hours following injection and tumors, livers and kidneys were removed. The BPD-MA in these tissues was extracted and photoactivity was assessed in P815 target cells as described above in Example 1 under standard in vitro conditions."}, "skin": {"system": "skin", "conditions": "mouse, in vivo", "protocol": "Mice bearing P815 tumors were shaved and injected with equivalent amounts of photosensitizer, and exposed to 72 Jo/cm^2 (80 mw/cm^2 -15 min-full spectrum) at various time intervals. Skin biopsies were taken at 24 and 48 hours after light irradiation and visual evaluations were made blind."}, "colon adenocarcinoma [3]": {"system": "colon adenocarcinoma", "conditions": "rat, in vivo"}, "in vivo": {"assay": "in vivo", "conditions": "mouse, iv", "protocol": "as §4"}, "colon adenocarcinoma [4]": {"system": "colon adenocarcinoma", "assay": "Detection of tumors by fluorescence in rats", "conditions": "3.5 mg/kg IV; 3 h"}, "tumor cells": {"system": "tumor cells", "assay": "Alternate in vivo assay: kill of tumor cells from dosed mice (MTT)", "conditions": "180 min"}, "[5]": {"assay_type": "in vitro ADME", "conditions": "human", "procedure": "(§1) Franz in vitro percutaneous diffusion chambers were used to conduct studies of BPD formulations with oleic acid and oleyl alcohol vehicles (^14 C-BPD having a specific activity of 6 μCi was used). Excised split thickness (200 μ) human cadaver skin was mounted on the chamber (surface area 3 cm^2). The lower reservoir contained 4% bovine serum albumen in isotonic buffered saline, pH 7.0.\n(§2) The chambers with the skin were equilibrated to 37° C. prior to application of the drug formulations. Formulations ([…] containing 1.67 μCi) were applied to the epidermal surface of the skin. The chamber was covered (occluded) to prevent evaporation, and the experiment was conducted in the dark.\n(§3) Six diffusion cells were run for each time point (1.5 hr, 3 hr, 24 hr) for each formulation. Samples were removed from the dermal chamber at 1.5 hr, 3 hr and 24 hr. Cumulative penetration was assayed by liquid scintillation.\nAt the end of the respective time point, the surface of the skin was washed to remove surface drug. A 4 mm full thickness skin punch biopsy was taken from each specimen and processed for frozen section tissue fluorescence. This necessitates termination of flux measurements in that chamber. The stratum corneum was removed by 25 repetitive strippings with cellophane tape and counted in groups of five. The epidermis was heat-separated from the dermis by heating to 60° C. for 1 minute. These tissues were then digested and the ^14 C-BPD content of each of the skin compartments and reservoir was determined by liquid scintillation counting. (In the tables, \"BPD-OA\" and \"BPD-OL\" represent the BPD-oleic acid and BPD-oleyl alcohol formulations of the preceding example, \"CH-014\" represents ^14 C-labeled BPD-MA, and \"phospholipid\" represents a BPD-MA liposomal formulation.)"}, "[6]": {"assay_type": "in vitro ADME, human", "procedure": "as §1, §2, §3\nAt the end of the respective time point, the surface of the skin was washed to remove surface drug. A 4 mm full thickness skin punch biopsy was taken from each specimen and processed for frozen section tissue fluorescence. […] The stratum corneum was removed by 25 repetitive strippings with cellophane tape and counted in groups of five. […] These tissues were then digested and the ^14 C-BPD content of each of the skin compartments and reservoir was determined by liquid scintillation counting. […]"}}, "note": "Values joined by “and” are separate entries in the source; they are usually repeats but may differ in a detail not shown here. Equal entries are not always repeated. Where two headings read alike, the source gives them in different places."}
{"smiles": "C=Cc1c(C)c2cc3nc(cc4[nH]c(cc5nc(cc1[nH]2)C(C)=C5CCC(=O)O)c(CCC(=O)OC)c4C)C1(C)C3=CC=C(C(=O)OC)C1C(=O)OC", "note": "(stereo not drawn) [BPD-MA]", "values": [{"measurement": "in vitro photosensitivity", "setting": "target cells", "result": "somewhat more active"}, {"measurement": "Number of Days Tumor Free (PR)", "setting": "M-1 rhabdomycoscercoma; Table 6, 567 Jo/cm^2, IV 24 h before light", "result": 9.2, "unit": "days"}, {"measurement": "Cures (tumor regressed and tumor-free for 30 days)", "setting": "M-1 rhabdomycoscercoma; Table 6, 567 Jo/cm^2, 8 animals per group", "result": 4}, {"measurement": "Days Tumor-free", "setting": "M-1 rhabdomycoscercoma; Table 7, light dose 378 To/cm^3", "result": 13.2, "unit": "days"}, {"measurement": "Number of Cures", "setting": "M-1 rhabdomycoscercoma; Table 7, light dose 378 To/cm^3, 9-15 animals", "result": 4}, {"measurement": "relationship between total light energy and drug dose required to inactivate VSV", "setting": "VSV; 1, 2 and 4 μg/ml, 1 ml samples, 2 h before light", "result": "inverse relationship between total light energy and the drug dose required to inactivate the VSV"}, {"measurement": "virus inactivation", "setting": "VSV; 2 and 4 μg/ml, 2 h dark incubation, 57.6 J/cm^2, 1 and 2 ml samples", "result": "complete virus inactivation"}, {"measurement": "effect of increasing incubation time on VSV inactivation", "setting": "VSV; 0.5 hour to 1 hour, 1 μg/ml, 57.6 J/cm^2", "result": "improved VSV inactivation"}, {"measurement": "log reduction at 2 µg/mL", "setting": "VSV; Vesicular stomatitis virus, light or radiation study, 2 h, read-out: viral kill, 2 μg/ml, 1 ml, 2 h, 57.6 J/cm^2", "result": 7}, {"measurement": "log reduction at 1 µg/mL", "setting": "VSV; Vesicular stomatitis virus, light or radiation study, 2 h, 28.8 J/cm^2", "result": 2}, {"measurement": "log reduction at 1 µg/mL", "setting": "VSV; Vesicular stomatitis virus, light or radiation study, 2 h, 57.6 J/cm^2", "result": 5}, {"measurement": "log reduction at 1000 µg/mL", "setting": "VSV; Vesicular stomatitis virus, light or radiation study, 1 ml sample, 57.6 J/cm^2", "result": 4}, {"measurement": "log reduction at 1000 µg/mL", "setting": "VSV; Vesicular stomatitis virus, light or radiation study, 2 ml sample, 57.6 J/cm^2", "result": 2}, {"measurement": "effect of incubation temperature", "setting": "VSV; room temperature, 37° C. or 4° C.", "result": "little difference"}, {"measurement": "effect of further increasing incubation time on VSV inactivation", "setting": "VSV; to 2-3 hours, 1 μg/ml, 57.6 J/cm^2", "result": "little effect"}, {"measurement": "fluorescence for detection of plaques", "setting": "[1]; 10 μg/ml or less", "result": "did not provide sufficient fluorescence to detect the presence of plaques"}, {"measurement": "fluorescence for detection of plaques", "setting": "[1]; 100 μg/ml and above", "result": "fluorescence was clearly seen"}, {"measurement": "fluorescence in plaqued areas", "setting": "[1]; approximately 25 μg/ml", "result": "showed most intensely in the plaqued areas"}, {"measurement": "fluorescence in underlying arterial wall", "setting": "[1]; approximately 25 μg/ml", "result": "no fluorescence was seen in the underlying arterial wall"}, {"measurement": "fluorescence in aorta tissue samples", "setting": "atherosclerotic aortas; 30 μg/kg", "result": "No fluorescence was seen"}, {"measurement": "fluorescence in normal aorta samples", "setting": "atherosclerotic aortas; 100 μg/kg", "result": "no fluorescence was shown in the normal aorta samples"}, {"measurement": "fluorescence in atherosclerotic samples", "setting": "atherosclerotic aortas; 100 μg/kg, two samples", "result": "fluorescence was seen in the plaque but not the arterial wall"}, {"measurement": "warts completely regressed", "setting": "[2]; 150 J/cm^2, 690 nm", "result": 7}, {"measurement": "warts showing >50% regression", "setting": "[2]; 150 J/cm^2, 690 nm", "result": 5}, {"measurement": "warts showing complete cure", "setting": "[2]; 250 J/cm^2, 690 nm", "result": 12}, {"measurement": "degradation in liver and kidney compared with tumor tissue", "setting": "P815 target cells", "result": "both the liver and kidney degraded BPD more rapidly than did tumor tissue"}, {"measurement": "skin photosensitizing activity", "setting": "skin", "result": "major photosensitizing activity"}, {"measurement": "time dependence of skin photosensitizing activity", "setting": "skin", "result": "only present when light treatment was given 3 hours post drug administration"}, {"measurement": "drug-related signal over malignant tumor", "setting": "colon adenocarcinoma [3]", "result": "BPD-MA-related signal increases over the malignant tumor"}, {"measurement": "remaining at 3 h", "setting": "in vivo", "result": 100, "unit": "%"}, {"measurement": "remaining at 24 h", "setting": "in vivo", "result": 39, "unit": "%"}, {"measurement": "ratio of tumor exterior to muscle compared with HP", "setting": "colon adenocarcinoma [4]", "result": "approximately the same as that for HP"}, {"measurement": "% Kill", "setting": "tumor cells; 33 μg/mouse IV, light dose 5.7 Jo", "result": 22.0, "unit": "%"}, {"measurement": "% Kill", "setting": "tumor cells; 40 μg/mouse IV, light dose 3.8 Jo", "result": 32.5, "unit": "%"}, {"measurement": "% Kill", "setting": "tumor cells; 80 μg/mouse IV, light dose 3.8 Jo", "result": "63.5 ± 2.1% and 53.7 ± 6.2%"}]}
{"smiles": "C=Cc1c(C)c2cc3nc(cc4[nH]c(cc5nc(cc1[nH]2)C(C)=C5CCC(=O)O)c(CCC(=O)OC)c4C)C1(C)C3=CC=C(C(=O)OC)C1C(=O)OC", "note": "(stereo not drawn) [CH-014]", "values": [{"measurement": "PERCENT RECOVERY, Dermis", "setting": "[5]; 90 min", "result": ".19 ± .06%"}, {"measurement": "PERCENT RECOVERY, Epidermis", "setting": "[5]; 90 min", "result": ".13 ± .13%"}, {"measurement": "PERCENT RECOVERY, Reservoir", "setting": "[5]; 90 min", "result": 0, "unit": "%"}, {"measurement": "PERCENT RECOVERY, Dermis", "setting": "[5]; 180 min", "result": ".32 ± .11%"}, {"measurement": "PERCENT RECOVERY, Epidermis", "setting": "[5]; 180 min", "result": ".06 ± .02%"}, {"measurement": "PERCENT RECOVERY, Reservoir", "setting": "[5]; 180 min", "result": 0, "unit": "%"}, {"measurement": "PERCENT RECOVERY, Dermis", "setting": "[5]; 1440 min", "result": ".40 ± .28%"}, {"measurement": "PERCENT RECOVERY, Epidermis", "setting": "[5]; 1440 min", "result": ".06 ± .03%"}, {"measurement": "PERCENT RECOVERY, Reservoir", "setting": "[5]; 1440 min", "result": ".014 ± .018%"}, {"measurement": "TISSUE FLUORESCENCE, Dermis", "setting": "[6]", "result": 1}]}
